Experimental data reported in US6653476B2, “Thienopyridine derivatives, their production and use” (Takeda Chemical Industries, Ltd., priority 2000, dated 2003).

system: Adjuvant Arthritis in Rats; experiment: Effect on adjuvant arthritis in rats (footpad swelling); format: in vivo; settings: male Lewis rats, 3.13 mg/kg/day orally once daily for 14 days, left footpad edema on Day 14; ** p < 0.01 vs. control
Experimental: The test compound was suspended in 0.5% methyl cellulose and administered orally once daily for 14 days to male Lewis rats (7-week old, Japan Clea), which had been sensitized by the intradermal injection of 0.05 ml Freund's complete adjuvant (0.5% suspension of killed Mycobacterium tuberculosis in liquid paraffin) into the right hind footpad. Immediately before the sensitization (Day 0) and on 14 days after the administration (Day 14), the volume of the edema on the left footpad was measured by using a plethysmometer (manufactured by Ugo Basile Company, Italy) and the suppression rate (%) of footpad swelling relative to the unsensitized rats was calculated according to the following equation.
Suppression rate of footpad swelling (%)={1-[(volume of footpad edema in the treatment group)−(volume of footpad edema in the unsensitized group)]/[(volume of footpad edema in the non-treatment group)−(volume of footpad edema in the unsensitized group)]}×100
The results were expressed by the mean±S.E. in each group (n=6) and tested by Dunnet's comparison with a significance level of 5%.

| Compound | Suppression rate of footpad swelling (%) |
| --- | --- |
| 3-chloro-2-[(2,5-dioxopyrrolidin-1-yl)methyl]-5,6,7,8-tetrahydro-7-oxo-4-(4-methoxyphenyl)[1]-benzothieno[2,3-b]pyridine ethylene ketal [Example 13] | 77** % |
| COc1ccc(-c2c(Cl)c(CN3C(=O)CCC3=O)nc3sc4c(c23)CC[S+]([O-])C4)cc1 (centres unmarked) [Example 22, 1-{[3-Chloro-4-(4-methoxyphenyl)-7-oxido-5,8-dihydro-6H-thiopyrano[4′,3′:4,5]thieno[2,3-b]pyridin-2-yl]methyl}-2,5-pyrrolidinedione] | 88** % |

system: not given; experiment: not given; settings: not given

| Compound | melting point |
| --- | --- |
| CN(C)CC(=O)Oc1ccc(-c2c(Cl)c(CN3C(=O)CCC3=O)nc3sc4c(c23)CCS(=O)(=O)C4)cc1.Cl | 199 to 200 °C |
| COc1ccc(-c2c(Cl)c(CN3C(=O)CCC3=O)nc3sc4c(c23)CC[S+]([O-])C4)cc1 (centres unmarked) [Example 22, 1-{[3-Chloro-4-(4-methoxyphenyl)-7-oxido-5,8-dihydro-6H-thiopyrano[4′,3′:4,5]thieno[2,3-b]pyridin-2-yl]methyl}-2,5-pyrrolidinedione] | 268 to 269 °C |
| COc1ccc(-c2c(Cl)c(CN3C(=O)CCC3=O)nc3sc4c(c23)CC[S@+]([O-])C4)cc1 [Example 46, (S)-1-{[3-chloro-4-(4-methoxyphenyl)-7-oxido-5,8-dihydro-6H-thiopyrano[4′,3′:4,5]thieno[2,3-b]pyridin-2-yl]methyl}-2,5-pyrrolidinedione] | 217 to 218.5 °C (dec.) |
| COc1ccc(-c2c(Cl)c(CN3C(=O)CCC3=O)nc3sc4c(F)c(OC)ccc4c23)cc1 [Example 60, 1-{[3-chloro-8-fluoro-7-methoxy-4-(4-methoxyphenyl)[1]-benzothieno[2,3-b]pyridin-2-yl]methyl}-2,5-pyrrolidinedione] | 215 to 216 °C |
| CC(=O)Oc1ccc(-c2c(Cl)c(CN3C(=O)CCC3=O)nc3sc4c(c23)CCS(=O)(=O)C4)cc1 [Example 64, 4-{3-chloro-2-[(2,5-dioxo-1-pyrrolidinyl)methyl]-7,7-dioxido-5,8-dihydro-6H-thiopyrano[4′,3′:4,5]thieno[2,3-b]pyridin-4-yl}phenylacetate] | 272 to 273 °C |
| CCC(=O)Oc1ccc(-c2c(Cl)c(CN3C(=O)CCC3=O)nc3sc4c(c23)CCS(=O)(=O)C4)cc1 [Example 65] | 268 to 269 °C |
| CCOC(=O)COc1ccc(-c2c(Cl)c(CN3C(=O)CCC3=O)nc3sc4c(c23)CCS(=O)(=O)C4)cc1 [Example 110, ethyl (4-{3-chloro-2-[(2,5-dioxo-1-pyrrolidinyl)methyl]-7,7-dioxidO-5,8-dihydro-6H-thiopyrano[4′,3′:4,5]thieno[2,3-b]pyridin-4-yl}phenoxy)acetate] | 215 to 216 °C |
| CC(C)(C)OC(=O)COc1ccc(-c2c(Cl)c(CN3C(=O)CCC3=O)nc3sc4c(c23)CCSC4)cc1 [Example 112, tert-butyl (4-{3-chloro-2-[(2,5-dioxo-1-pyrrolidinyl)methyl]-5,8-dihydro-6H-thiopyrano[4′,3′:4,5]-thieno[2,3-b]pyridin-4-yl}phenoxy)acetate] | 191 to 192 °C |
| CC(C)(C)OC(=O)COc1ccc(-c2c(Cl)c(CN3C(=O)CCC3=O)nc3sc4c(c23)CC[S+]([O-])C4)cc1 (centres unmarked) [Example 113, tert-butyl (4-{3-chloro-2-[(2,5-dioxo-1-pyrrolidinyl)methyl]-7-oxido-5,8-dihydro-6H-thiopyrano[4′,3′:4,5]thieno(2,3-b]pyridin-4-yl}phenoxy)-acetate] | 175 to 176 °C |
| CC(C)(C)OC(=O)COc1ccc(-c2c(Cl)c(CN3C(=O)CCC3=O)nc3sc4c(c23)CCS(=O)(=O)C4)cc1 [Example 114, tert-butyl (4-{3-chloro-2-[(2,5-dioxo-1-pyrrolidinyl)methyl]-7,7-dioxido-5,8-dihydro-6H-thiopyrano[4′,3′:4,5]thieno[2,3-b]pyridin-4-yl}phenoxy)acetate] | 204 to 205 °C |
| O=C(O)COc1ccc(-c2c(Cl)c(CN3C(=O)CCC3=O)nc3sc4c(c23)CC[S+]([O-])C4)cc1 (centres unmarked) [Example 115, (4-{3-chloro-2-[(2,5-dioxo-1-pyrrolidinyl)methyl]-7-oxido-5,8-dihydro-6H-thiopyrano[4′,3′:4,5]thieno[2,3-b]pyridin-4-yl}phenoxy)acetic acid] | 205 to 206 °C |
| O=C(O)COc1ccc(-c2c(Cl)c(CN3C(=O)CCC3=O)nc3sc4c(c23)CCS(=O)(=O)C4)cc1 [Example 116, (4-{3-chloro-2-[(2,5-dioxo-1-pyrrolidinyl)methyl]-7,7-dioxido-5,8-dihydro-6H-thiopyrano-[4′,3′:4,5]-thieno[2,3-b]pyridin-4-yl}phenoxy)acetic acid] | 260 to 261 °C |
